According to US12539292B2, “BRM targeting compounds and associated methods of use” (Arvinas Operations, Inc., priority 2018, dated 2026):

Target: T1, BRM (Homo sapiens, UniProt P51531)
T1 construct: In-Cell Western Screen of BRM Degradation in SW1573 Cells; endogenous in cells; host or cells: SW1573
Assay: In-cell Western screen of BRM degradation in SW1573 cells (Dmax and DC50)
Format: cell-based
Conditions: BRM degradation, SW1573 cells; for DC50: read-out: DC50; for Dmax: when tested at the top concentration of between 0.3 and 10 μM, read-out: Dmax (%) (% degraded)
How it was run: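 After adhering overnight, cells received compound for 18-20 hours. They were then washed in cold DPBS, fixed with 4% PFA for 20 min and permeabilized for 30 min. Blocking and fluorescent secondary staining followed before imaging.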

T1 sequence (P51531 whole entry): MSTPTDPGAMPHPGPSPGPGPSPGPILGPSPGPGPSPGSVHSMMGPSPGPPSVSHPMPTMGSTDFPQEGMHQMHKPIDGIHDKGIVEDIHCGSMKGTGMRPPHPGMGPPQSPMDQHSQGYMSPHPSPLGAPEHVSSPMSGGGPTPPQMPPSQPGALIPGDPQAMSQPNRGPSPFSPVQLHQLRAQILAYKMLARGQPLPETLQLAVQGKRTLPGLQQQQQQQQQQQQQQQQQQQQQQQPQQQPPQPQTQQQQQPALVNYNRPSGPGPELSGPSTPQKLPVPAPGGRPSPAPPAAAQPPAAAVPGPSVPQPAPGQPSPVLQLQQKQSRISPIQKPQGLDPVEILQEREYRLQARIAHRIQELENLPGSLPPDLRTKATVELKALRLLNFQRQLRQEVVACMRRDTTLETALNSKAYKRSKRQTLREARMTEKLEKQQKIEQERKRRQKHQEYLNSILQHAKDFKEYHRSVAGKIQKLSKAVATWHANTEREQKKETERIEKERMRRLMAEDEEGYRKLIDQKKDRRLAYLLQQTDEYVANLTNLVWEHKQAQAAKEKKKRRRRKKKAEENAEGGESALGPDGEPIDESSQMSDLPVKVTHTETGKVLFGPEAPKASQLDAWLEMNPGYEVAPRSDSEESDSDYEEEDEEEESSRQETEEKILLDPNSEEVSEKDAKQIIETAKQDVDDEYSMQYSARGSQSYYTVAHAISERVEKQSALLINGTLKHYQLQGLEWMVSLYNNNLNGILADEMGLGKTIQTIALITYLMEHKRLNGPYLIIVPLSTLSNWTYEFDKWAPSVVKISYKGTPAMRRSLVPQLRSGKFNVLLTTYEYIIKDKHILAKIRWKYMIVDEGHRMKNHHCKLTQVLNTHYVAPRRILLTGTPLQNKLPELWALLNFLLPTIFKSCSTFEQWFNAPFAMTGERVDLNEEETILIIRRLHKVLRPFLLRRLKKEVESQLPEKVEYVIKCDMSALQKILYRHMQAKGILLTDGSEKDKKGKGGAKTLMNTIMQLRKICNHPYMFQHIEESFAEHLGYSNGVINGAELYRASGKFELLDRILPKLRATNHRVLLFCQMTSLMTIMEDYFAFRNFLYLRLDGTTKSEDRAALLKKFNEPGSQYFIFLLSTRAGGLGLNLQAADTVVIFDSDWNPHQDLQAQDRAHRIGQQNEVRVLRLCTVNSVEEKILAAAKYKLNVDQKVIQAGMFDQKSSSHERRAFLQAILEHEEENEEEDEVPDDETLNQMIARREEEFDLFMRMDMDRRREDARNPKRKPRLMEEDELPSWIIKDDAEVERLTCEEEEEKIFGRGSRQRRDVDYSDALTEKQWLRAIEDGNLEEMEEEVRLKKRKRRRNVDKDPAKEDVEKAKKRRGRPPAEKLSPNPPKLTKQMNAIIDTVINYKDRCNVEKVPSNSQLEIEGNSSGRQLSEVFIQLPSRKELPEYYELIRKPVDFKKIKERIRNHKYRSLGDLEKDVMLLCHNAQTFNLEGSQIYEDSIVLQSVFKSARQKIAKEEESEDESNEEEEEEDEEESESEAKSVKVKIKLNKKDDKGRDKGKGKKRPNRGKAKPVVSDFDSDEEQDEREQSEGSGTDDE

Structure (SMILES) | DC50 [nM] | Dmax [%]
Cc1ncsc1-c1ccc([C@H](C)NC(=O)[C@@H]2C[C@@H](O)CN2C(=O)[C@@H](c2cc(OCCN3CCN(CCOc4cc(N5C6CCC5CN(c5cc(-c7ccccc7O)nnc5N)C6)ccn4)CC3)no2)C(C)C)cn1 [compound 116, (2S,4R)-1-((2R)-2-(3-(2-(4-(2-((4-(3-(3-amino-6-(2-hydroxyphenyl)pyridazin-4-yl)-3,8-diazabicyclo[3.2.1]octan-8-yl)pyridin-2-yl)oxy)ethyl)piperazin-1-yl)ethoxy)isoxazol-5-yl)-3-methylbutanoyl)-4-hydroxy-N-((S)-1-(6-(4-methylthiazol-5-yl)pyridin-3-yl)ethyl)pyrrolidine-2-carboxamide] | < 2.5 | > 75
Cc1ncoc1-c1ccc([C@H](C)NC(=O)[C@@H]2C[C@@H](O)CN2C(=O)[C@@H](c2cc(OCCN3CCN(CCOc4cc(N5C6CCC5CN(c5cc(-c7ccccc7O)nnc5N)C6)ccn4)CC3)no2)C(C)C)cn1 [compound 117, (2S,4R)-1-((2R)-2-(3-(2-(4-(2-((4-(3-(3-amino-6-(2-hydroxyphenyl)pyridazin-4-yl)-3,8-diazabicyclo[3.2.1]octan-8-yl)pyridin-2-yl)oxy)ethyl)piperazin-1-yl)ethoxy)isoxazol-5-yl)-3-methylbutanoyl)-4-hydroxy-N-((S)-1-(6-(4-methyloxazol-5-yl)pyridin-3-yl)ethyl)pyrrolidine-2-carboxamide] | 2.5 to 10 | > 75
Cc1ncsc1-c1ccc(CNC(=O)[C@@H]2C[C@@H](O)CN2C(=O)[C@@H](c2cc(OCCN3CCN(CCOCCn4cc(-c5cc(-c6ccccc6O)nnc5N)cn4)CC3)no2)C(C)C)cc1 [compound 124, (2S,4R)-1-((R)-2-(3-(2-(4-(2-(2-(4-(3-amino-6-(2-hydroxyphenyl)pyridazin-4-yl)-1H-pyrazol-1-yl)ethoxy)ethyl)piperazin-1-yl)ethoxy)isoxazol-5-yl)-3-methylbutanoyl)-4-hydroxy-N-(4-(4-methylthiazol-5-yl)benzyl)pyrrolidine-2-carboxamide] | > 30 | > 75
Cc1ncsc1-c1ccc(C2(NC(=O)[C@@H]3C[C@@H](O)CN3C(=O)[C@@H](c3cc(OCCN4CCN(CCOc5cc(N6C7CCC6CN(c6cc(-c8ccccc8O)nnc6N)C7)ccn5)CC4)no3)C(C)C)CN(C)C2)cc1 [compound 126, (2S,4R)-1-((2R)-2-(3-(2-(4-(2-((4-(3-(3-amino-6-(2-hydroxyphenyl)pyridazin-4-yl)-3,8-diazabicyclo[3.2.1]octan-8-yl)pyridin-2-yl)oxy)ethyl)piperazin-1-yl)ethoxy)isoxazol-5-yl)-3-methylbutanoyl)-4-hydroxy-N-(1-methyl-3-(4-(4-methylthiazol-5-yl)phenyl)azetidin-3-yl)pyrrolidine-2-carboxamide] | 2.5 to 10 | > 75
CC(=O)N1CC(NC(=O)[C@@H]2C[C@@H](O)CN2C(=O)[C@@H](c2cc(OCCN3CCN(CCOc4cc(N5C6CCC5CN(c5cc(-c7ccccc7O)nnc5N)C6)ccn4)CC3)no2)C(C)C)(c2ccc(-c3scnc3C)cc2)C1 [compound 127, (2S,4R)-N-(1-acetyl-3-(4-(4-methylthiazol-5-yl)phenyl)azetidin-3-yl)-1-((2R)-2-(3-(2-(4-(2-((4-(3-(3-amino-6-(2-hydroxyphenyl)pyridazin-4-yl)-3,8-diazabicyclo[3.2.1]octan-8-yl)pyridin-2-yl)oxy)ethyl)piperazin-1-yl)ethoxy)isoxazol-5-yl)-3-methylbutanoyl)-4-hydroxypyrrolidine-2-carboxamide] | 10 to 30 | > 75
CCOC[C@H](NC(=O)[C@@H]1C[C@@H](O)CN1C(=O)[C@@H](c1cc(OCCN2CCN(CCOc3cc(N4C5CCC4CN(c4cc(-c6ccccc6O)nnc4N)C5)ccn3)CC2)no1)C(C)C)c1ccc(-c2scnc2C)cc1 [compound 128, (2S,4R)-1-((2R)-2-(3-(2-(4-(2-((4-(3-(3-amino-6-(2-hydroxyphenyl)pyridazin-4-yl)-3,8-diazabicyclo[3.2.1]octan-8-yl)pyridin-2-yl)oxy)ethyl)piperazin-1-yl)ethoxy)isoxazol-5-yl)-3-methylbutanoyl)-N-((R)-2-ethoxy-1-(4-(4-methylthiazol-5-yl)phenyl)ethyl)-4-hydroxypyrrolidine-2-carboxamide] | < 2.5 | > 75
Cc1ncsc1-c1ccc([C@H](COCC(C)C)NC(=O)[C@@H]2C[C@@H](O)CN2C(=O)[C@@H](c2cc(OCCN3CCN(CCOc4cc(N5C6CCC5CN(c5cc(-c7ccccc7O)nnc5N)C6)ccn4)CC3)no2)C(C)C)cc1 [compound 129, (2S,4R)-1-((2R)-2-(3-(2-(4-(2-((4-(3-(3-amino-6-(2-hydroxyphenyl)pyridazin-4-yl)-3,8-diazabicyclo[3.2.1]octan-8-yl)pyridin-2-yl)oxy)ethyl)piperazin-1-yl)ethoxy)isoxazol-5-yl)-3-methylbutanoyl)-4-hydroxy-N-((R)-2-isobutoxy-1-(4-(4-methylthiazol-5-yl)phenyl)ethyl)pyrrolidine-2-carboxamide] | > 30 | –
Cc1ncsc1-c1ccc([C@H](COCC2CCOCC2)NC(=O)[C@@H]2C[C@@H](O)CN2C(=O)[C@@H](c2cc(OCCN3CCN(CCOc4cc(N5C6CCC5CN(c5cc(-c7ccccc7O)nnc5N)C6)ccn4)CC3)no2)C(C)C)cc1 [compound 130, (2S,4R)-1-((2R)-2-(3-(2-(4-(2-((4-(3-(3-amino-6-(2-hydroxyphenyl)pyridazin-4-yl)-3,8-diazabicyclo[3.2.1]octan-8-yl)pyridin-2-yl)oxy)ethyl)piperazin-1-yl)ethoxy)isoxazol-5-yl)-3-methylbutanoyl)-4-hydroxy-N-((R)-1-(4-(4-methylthiazol-5-yl)phenyl)-2-((tetrahydro-2H-pyran-4-yl)methoxy)ethyl)pyrrolidine-2-carboxamide] | 2.5 to 10 | > 75
Cc1ncsc1-c1ccc([C@@H](NC(=O)[C@@H]2C[C@@H](O)CN2C(=O)[C@@H](c2cc(OCCN3CCN(CCOc4cc(N5C6CCC5CN(c5cc(-c7ccccc7O)nnc5N)C6)ccn4)CC3)no2)C(C)C)C(=O)N(C)C)cc1 [compound 131, (2S,4R)-1-((2R)-2-(3-(2-(4-(2-((4-(3-(3-amino-6-(2-hydroxyphenyl)pyridazin-4-yl)-3,8-diazabicyclo[3.2.1]octan-8-yl)pyridin-2-yl)oxy)ethyl)piperazin-1-yl)ethoxy)isoxazol-5-yl)-3-methylbutanoyl)-N-((R)-2-(dimethylamino)-1-(4-(4-methylthiazol-5-yl)phenyl)-2-oxoethyl)-4-hydroxypyrrolidine-2-carboxamide] | < 2.5 | > 75
Cc1ncsc1-c1ccc([C@H](C)NC(=O)[C@@H]2C[C@@H](O)CN2C(=O)[C@@H](c2cc(OCCN3C4CC3CN(CCOc3cc(N5C6CCC5CN(c5cc(-c7ccccc7O)nnc5N)C6)ccn3)C4)no2)C(C)C)cc1 [compound 132, (2S,4R)-1-((2R)-2-(3-(2-(3-(2-((4-(3-(3-amino-6-(2-hydroxyphenyl)pyridazin-4-yl)-3,8-diazabicyclo[3.2.1]octan-8-yl)pyridin-2-yl)oxy)ethyl)-3,6-diazabicyclo[3.1.1]heptan-6-yl)ethoxy)isoxazol-5-yl)-3-methylbutanoyl)-4-hydroxy-N-((S)-1-(4-(4-methylthiazol-5-yl)phenyl)ethyl)pyrrolidine-2-carboxamide] | 2.5 to 10 | > 75
Cc1ncsc1-c1ccc([C@H](C)NC(=O)[C@@H]2C[C@@H](O)CN2C(=O)[C@@H](c2cc(OCCN3CC4CC(C3)N4CCOc3cc(N4C5CCC4CN(c4cc(-c6ccccc6O)nnc4N)C5)ccn3)no2)C(C)C)cc1 [compound 133, (2S,4R)-1-((2R)-2-(3-(2-(6-(2-((4-(3-(3-amino-6-(2-hydroxyphenyl)pyridazin-4-yl)-3,8-diazabicyclo[3.2.1]octan-8-yl)pyridin-2-yl)oxy)ethyl)-3,6-diazabicyclo[3.1.1]heptan-3-yl)ethoxy)isoxazol-5-yl)-3-methylbutanoyl)-4-hydroxy-N-((S)-1-(4-(4-methylthiazol-5-yl)phenyl)ethyl)pyrrolidine-2-carboxamide] | < 2.5 | > 75
Cc1ncsc1-c1ccc([C@H](C)NC(=O)[C@@H]2C[C@@H](O)CN2C(=O)[C@@H](c2cc(CCCN3CCN(CCOc4cc(N5C6CCC5CN(c5cc(-c7ccccc7O)nnc5N)C6)ccn4)CC3)no2)C(C)C)cc1 [compound 134, (2S,4R)-1-((2R)-2-(3-(3-(4-(2-((4-(3-(3-amino-6-(2-hydroxyphenyl)pyridazin-4-yl)-3,8-diazabicyclo[3.2.1]octan-8-yl)pyridin-2-yl)oxy)ethyl)piperazin-1-yl)propyl)isoxazol-5-yl)-3-methylbutanoyl)-4-hydroxy-N-((S)-1-(4-(4-methylthiazol-5-yl)phenyl)ethyl)pyrrolidine-2-carboxamide] | < 2.5 | > 75
Cc1ncsc1-c1ccc([C@H](C)NC(=O)[C@@H]2C[C@@H](O)CN2C(=O)[C@@H](c2cc(OCCN3C[C@@H]4C[C@H]3CN4CCOc3cc(N4C5CCC4CN(c4cc(-c6ccccc6O)nnc4N)C5)ccn3)no2)C(C)C)cc1 [compound 135, (2S,4R)-1-((2R)-2-(3-(2-((1S,4S)-5-(2-((4-(3-(3-amino-6-(2-hydroxyphenyl)pyridazin-4-yl)-3,8-diazabicyclo[3.2.1]octan-8-yl)pyridin-2-yl)oxy)ethyl)-2,5-diazabicyclo[2.2.1]heptan-2-yl)ethoxy)isoxazol-5-yl)-3-methylbutanoyl)-4-hydroxy-N-((S)-1-(4-(4-methylthiazol-5-yl)phenyl)ethyl)pyrrolidine-2-carboxamide] | < 2.5 | > 75
